From patent publication US4497803A, “Inclusion compound of lankacidin-group antibiotic and use thereof” (priority 1982, dated 1985)
Converted amounts (≈) assume the structure as drawn. Where two headings read alike, the source gives them in different places.

Assays:
[1] = Solubility of C8-P and C14-P in CD solution, shaken one hour (Example 2); format: physicochemical
Description: (§1) Powdery lankacidin C was added to an aqueous solution of cyclodextrin (hereinafter referred to as "CD") to have 4 mg/ml of the lankacidin C contained. After the mixture was stirred with a mixer, it was shaken at 5° C. for 2 hours, and passed through filter paper. The absorbancy of the filtrate was measured at 227-229 nm to determine concentration of the lankacidin C.
Solubilities of lankacidin C 8-propionate (hereinafter referred to as "C8-P"), and lankacidin C 14-propionate (hereinafter referred to as "C14-P") in a solution of CD were measured in the same manner as that of Example 1 except that the shaking was continued for one hour.

[2] = Solubility of lankacidin-group in β-CD solution (10^-2 Mol/l), shaken 30 minutes to one hour (Example 4); format: physicochemical; settings: for solubility: read-out: Solubility; for ratio: Solubility in a 10^-2 Mol/l solution of CD/solubility in water: β-CD 10^-2 Mol/l vs water
Description: as §1
The solubility of lankacidin-group in a solution of β-CD (10^-2 Mol/l) were measured in the same manner as that of Example 1 except that the shaking was continued for 30 minutes to one hour.

[3] = tested on: St. aureus 209P; experiment: Stability of inclusion compound of lankacidin-group (24° C., for 6 days): antibacterial activity by paper disk assay; format: cell-based; settings: methanol, 100 μg/ml
Description: The inclusion compound of the present invention is stable in an aqueous solution, although it splits into lankacidin-group moiety and cyclodextrins moiety, when it is in the form of solution or powder, by contacting it with organic solvents (e.g., ethyl acetate, methyl isobutyl ketone) or various carriers (e.g., silica gel, high-porous resins). […] In comparing the antibacterial activity, concentrations of the inclusion compound are calculated in terms of lankacidin-group compound from which the inclusion compound is prepared.
Stability of inclusion compound of lankacidin-group
*1 Paper disk assay using Trypticase soy agar (Baltimore Biologicals Ltd.
U.S.A.) as test culture media.
*2 1000 μg/ml, Lankacidingroup is stable in methanol.
*3 Aqueous solution of the inclusion compound with cyclodextrin (1000
μg/ml calculated in terms of lankacidingroup)

[4] = Solubility of inclusion compound in water; format: physicochemical
Description: The lankacidin-group is added to each of solutions containing various amounts of cyclodextrin. The minimum concentration of cyclodextrin which dissolves the maximum amount of the lankacidin-group compound and practical concentrations thereof are determined on the basis of amounts of the lankacidin-group compound dissolved in the cyclodextrin solutions. Then, the molar ratio of cyclodextrin to lankacidin-group compound is calculated by the following equation:
Molar ratio=[Molarity of cyclodextrin]:[(Saturation molarity of lankacidin-group compound in a certain concentration of cyclodextrin-solution)-(saturation molarity of lankacidin-group compound in an aqueous solution)].
Moreover, a large amount of the present inclusion compound is dissolved in water and it is kept stably therein. Solubility of the inclusion compound in water is greater than that of landacidin-group compounds in water, when the amount of the inclusion compound dissolved is calculated in terms of lankacidin-group compound, and than saturation concentration of cyclodextrin in water so far as cyclodextrin contained in the inclusion compound is concerned (Table 2).
(1) Solubility of lankacidingroup in water.
(2) Solubility of lankacidingroup in M/100 cyclodextrin solution.
(3) Concentration of cyclodextrin of (2).
(4) Solubility (maximum) of the present inclusion compound (calculated in
terms of lankacidingroup contained) in water.
(5) Concentration of cyclodextrin contained in the inclusion compound of […]

[5] = Solubility of lankacidin C in aqueous cyclodextrin solution, shaken at 5° C. for 2 hours (Example 1); format: physicochemical
Description: as §1

[6] = Solubility in β-CD solution, shaken 16 hours (Example 3); format: physicochemical
Description: as §1
The solubilities of lankacidin A, lankacidin C and lankacidinol in a β-CD solution were measured in the same manner as that of Example 1 except that the shaking was continued for 16 hours.

[7] = Stability of lankacidin A and C in methanolic aqueous solutions, 40° C., HPLC (Example 7); format: physicochemical; settings: for Residual rate / remaining at 6 h: 10 μg/ml, pH 7.0, 40° C.; for Residual rate: 0 hr; for remaining at 6 h: read-out: Residual rate
Description: 5 ml each of a methanolic solution containing lankacidin A or C in a concentration of 100 μg per ml was added to 45 ml each of pH 4.5 and pH 7.0 buffer solutions and a buffer solution containing β-cyclodextrin.
Each mixture was placed in a glass vessel, and then sealed. While the mixtures were kept in the vessel at 40° C., 5 ml each was taken out from time to time and extracted with ethyl acetate. The organic layers were dried over anhydrous sodium sulfate and the concentrations of the lankacidin A or C was measured with high-performance liquid chromatography (HPLC).
Apparatus: Water Associates ALC/GPC 240 (Waters Associates Inc., U.S.A.)
Column: μPoracil 30 cm×3.9 mm.phi.
Eluent: n-Hexane: isopropyl alcohol: acetic acid (75:25:0.2).

[8] = aqueous β-cd solution, β-CD 10^-2 Mol/l
[9] = aqueous β-cd solution, β-CD 10^-3 Mol/l
[10] = aqueous β-cd solution, β-CD 10^-4 Mol/l
[11] = aqueous γ-cd solution, γ-CD 10^-2 Mol/l
[12] = aqueous γ-cd solution, γ-CD 10^-3 Mol/l
[13] = aqueous γ-cd solution, γ-CD 10^-4 Mol/l
[14] = aqueous β-cyclodextrin solution, β-CD 10^-2 Mol/l

## CCC(=O)OC1C=CC(C)=CC(NC(=O)C(C)=O)C2(C)C(=O)OC(CC(O)C=CC(C)=CC1)C(C)C2=O (centres unmarked) [C8-P, lankacidin C 8-propionate]
[1]; CD solutions
  Solubility in CD solution, C8-P compared with C14-P: better solubility than that of C14-P
[1]; [8]
  solubility at 1 h: 3840 µg/mL (≈ 7450 µM)
[1]; [9]
  solubility at 1 h: 328 µg/mL (≈ 636 µM)
[1]; [10]
  solubility at 1 h: 46 µg/mL (≈ 89.2 µM)
[1]; [11]
  solubility at 1 h: 1610 µg/mL (≈ 3120 µM)
[1]; [12]
  solubility at 1 h: 249 µg/mL (≈ 483 µM)
[1]; [13]
  solubility at 1 h: 54 µg/mL (≈ 105 µM)
[1]; water, β-CD, CD 0 Mol/l
  solubility at 1 h: 18 µg/mL (≈ 34.9 µM)
[1]; water, γ-CD, CD 0 Mol/l
  solubility at 1 h: 19 µg/mL (≈ 36.9 µM)

## CCC(=O)OC1C=CC(C)=CCC(O)C=CC(C)=CC(NC(=O)C(C)=O)C2(C)C(=O)OC(C1)C(C)C2=O (centres unmarked) [C14-P, lankacidin C 14-propionate]
[1]; [8]
  solubility at 1 h: 159 µg/mL (≈ 308 µM)
[1]; [9]
  solubility at 1 h: 67 µg/mL (≈ 130 µM)
[1]; [10]
  solubility at 1 h: 21 µg/mL (≈ 40.7 µM)
[1]; [11]
  solubility at 1 h: 273 µg/mL (≈ 529 µM)
[1]; [12]
  solubility at 1 h: 114 µg/mL (≈ 221 µM)
[1]; [13]
  solubility at 1 h: 35 µg/mL (≈ 67.9 µM)
[1]; water, β-CD, CD 0 Mol/l
  solubility at 1 h: 19 µg/mL (≈ 36.9 µM)
[1]; water, γ-CD, CD 0 Mol/l
  solubility at 1 h: 19 µg/mL (≈ 36.9 µM)

## CC(=O)OC1C=CC(C)=CC(NC(=O)C(C)=O)C2(C)C(=O)OC(CC(OC(C)=O)C=CC(C)=CC1)C(C)C2=O (centres unmarked) [Lankacidin C 8,14-diacetate, lankacidin C 8,14-diacetate]
[2]; [14]
  solubility: 681 µg/mL (≈ 1250 µM)
[2]; β-CD 0 Mol/l (water)
  solubility: 16.2 µg/mL (≈ 29.8 µM)
[2]
  ratio: Solubility in a 10^-2 Mol/l solution of CD/solubility in water: 42.0

## CC(=O)OC1C=CC(C)=CC(NC(=O)C(C)=O)C2(C)C(=O)OC(CC(O)C=CC(C)=CC1)C(C)C2=O (centres unmarked) [Lankacidin C 8-acetate, lankacidin C 8-acetate]
[2]; [14]
  solubility: 2770 µg/mL (≈ 5520 µM)
[2]; β-CD 0 Mol/l (water)
  solubility: 74.3 µg/mL (≈ 148 µM)
[2]
  ratio: Solubility in a 10^-2 Mol/l solution of CD/solubility in water: 37.3

## CCCC(=O)OC1C=CC(C)=CC(NC(=O)C(C)=O)C2(C)C(=O)OC(CC(O)C=CC(C)=CC1)C(C)C2=O (centres unmarked) [Lankacidin C 8-butylate]
[2]; [14]
  solubility: 404 µg/mL (≈ 763 µM)
[2]; β-CD 0 Mol/l (water)
  solubility: 9 µg/mL (≈ 17 µM)
[2]
  ratio: Solubility in a 10^-2 Mol/l solution of CD/solubility in water: 44.9

## CCCC(=O)OC1C=CC(C)=CCC(O)C=CC(C)=CC(NC(=O)C(C)=O)C2(C)C(=O)OC(C1)C(C)C2=O (centres unmarked) [Lankacidin C 14-butylate]
[2]; [14]
  solubility: 118 µg/mL (≈ 223 µM)
[2]; β-CD 0 Mol/l (water)
  solubility: 17 µg/mL (≈ 32.1 µM)
[2]
  ratio: Solubility in a 10^-2 Mol/l solution of CD/solubility in water: 6.94

## CC(=O)C(=O)NC1C=C(C)C=CC(O)CC=C(C)C=CC(O)CC2OC(=O)C1(C)C(=O)C2C (centres unmarked) [Lankacidin C, lankacidin C]
[3]; 0 day
  Antibacterial activity, inhibition diameter: 28.25 mm
[3]; 3 days at 24° C.
  Antibacterial activity, inhibition diameter: 29.5 mm
[3]; 6 days at 24° C.
  Antibacterial activity, inhibition diameter: 29.5 mm
[4]; m/100 cyclodextrin solution, M/100 cyclodextrin, (3) cyclodextrin 11.3 mg/ml, read-out: (2) Solubility of lankacidin-group in M/100 cyclodextrin solution
  solubility: 3540 µg/mL (≈ 7700 µM)
[4]; water, read-out: (1) Solubility of lankacidin-group in water
  solubility: 268 µg/mL (≈ 583 µM)
[5]; [8]
  solubility at 2 h: 3730 µg/mL (≈ 8120 µM)
[5]; [9]
  solubility at 2 h: 650 µg/mL (≈ 1410 µM)
[5]; [10]
  solubility at 2 h: 280 µg/mL (≈ 609 µM)
[5]; [11]
  solubility at 2 h: 2390 µg/mL (≈ 5200 µM)
[5]; [12]
  solubility at 2 h: 460 µg/mL (≈ 1000 µM)
[5]; [13]
  solubility at 2 h: 260 µg/mL (≈ 566 µM)
[5]; aqueous γ-cyclodextrin solution, γ-CD 10^-1 Mol/l
  solubility at 2 h: 3790 µg/mL (≈ 8250 µM)
[5]; water, β-CD, CD 0 Mol/l
  solubility at 2 h: 260 µg/mL (≈ 566 µM)
[5]; water, γ-CD, CD 0 Mol/l
  solubility at 2 h: 260 µg/mL (≈ 566 µM)
[5]; β-CD and γ-CD solution
  Solubility in CD solution: high solubility
[6]; aqueous β-cd solution, β-CD 2 × 10^-3 Mol/l
  solubility at 16 h: 934 µg/mL (≈ 2030 µM)
[6]; aqueous β-cd solution, β-CD 2 × 10^-4 Mol/l
  solubility at 16 h: 304 µg/mL (≈ 662 µM)
[6]; aqueous β-cd solution, β-CD 5 × 10^-3 Mol/l
  solubility at 16 h: 1780 µg/mL (≈ 3870 µM)
[6]; aqueous β-cd solution, β-CD 5 × 10^-4 Mol/l
  solubility at 16 h: 409 µg/mL (≈ 890 µM)
[6]; [8]
  solubility at 16 h: 3350 µg/mL (≈ 7290 µM)
[6]; [9]
  solubility at 16 h: 566 µg/mL (≈ 1230 µM)
[6]; [10]
  solubility at 16 h: 262 µg/mL (≈ 570 µM)
[6]; from the vicinity of 10^-3 Mol/l of β-CD
  Solubility in β-CD solution as function of β-CD concentration: increase in proportion to the concentration of β-CD
[6]; water, β-CD 0 Mol/l
  solubility at 16 h: 237 µg/mL (≈ 516 µM)
[6]; β-CD 10^-3 Mol/l, 960 min
  solubility: 715 µg/mL (≈ 1560 µM)
[7]; no β-cyclodextrin
  Residual rate: 100%
[7]; β-cyclodextrin 10 mg/ml
  Residual rate: 100%
[7]; 1000 times β-CD by weight added
  Effect of β-cyclodextrin on stability in methanolic aqueous solutions: increased stabilities
[7]; methanolic aqueous buffer, no β-cyclodextrin
  remaining at 6 h: 43.7%
[7]; methanolic buffer with β-cyclodextrin, β-cyclodextrin 10 mg/ml
  remaining at 6 h: 88.2%
